Test results from patent US8507509B2, “Saturated and insaturated bi- or tricyclic aryloxyacetamine derivatives and their use as fungicides” (Syngenta Crop Protection LLC, priority 2007, dated 2013).

How the values were obtained:
Phytophthora infestans = assay: whole plant or invertebrate; assay type: in vivo; details: in Solanum lycopersicum, foliar, 96 h, read-out: control of fungal infection, Phytophthora infestans
Septoria nodorum = Septoria nodorum (wheat glume blotch), wheat leaf segment assay, preventive; assay type: in vivo; details: Parastagonospora nodorum, foliar, 96 h; 200 ppm; wheat leaf segments; assessed four days after inoculation; read-out: control of fungal infection, Septoria nodorum
Septoria tritici = Septoria tritici (leaf blotch), liquid culture growth inhibition in nutrient broth; assay type: cell-based; details: Zymoseptoria tritici; 200 ppm; PDB broth, 24 C; inhibition of growth determined photometrically after 72 hrs; read-out: control of fungal infection, Septoria tritici
[1] = test system: Erysiphe graminis f.sp. tritici; assay: Erysiphe graminis f.sp. tritici (wheat powdery mildew), wheat leaf segment assay, preventive; assay type: in vivo; details: Blumeria graminis, foliar, 96 h; 200 ppm; wheat leaf segments; assessed four days after inoculation; read-out: control of fungal infection, Etysiphe graminis f.sp. tritici
Botrytis cinerea = Botrytis cinerea (grey mould), bean leaf disk assay, preventive; assay type: in vivo; details: foliar, 96 h, 200 ppm, bean leaf disks, assessed four days after inoculation, read-out: control of fungal infection, Botrytis cinerea
Plasmopara viticola = Plasmopara viticola (downy mildew of grapevine), grapevine leaf disk assay, preventive; assay type: in vivo; details: foliar, 168 h, 200 ppm, grapevine leaf disks, assessed seven days after inoculation, read-out: control of fungal infection, Plasmopara viticola
[2] = test system: Puccinia recondita f.sp. tritici; assay: Puccinia recondita f.sp. tritici (wheat brown rust), wheat leaf segment assay, preventive; assay type: in vivo; details: foliar, 216 h, 200 ppm, wheat leaf segments, assessed nine days after inoculation, read-out: control of fungal infection, Puccinia recondite f.sp. tritici
Fusarium culmorum = Fusarium culmorum (root rot), liquid culture growth inhibition in nutrient broth; assay type: cell-based; details: PDB broth, 24 C, inhibition of growth determined photometrically after 48 hrs, read-out: control of fungal infection, Fusarium culmorum
Experimental: Mycelia fragments or conidia suspensions of a fungus, prepared either freshly from liquid cultures of the fungus or from cryogenic storage, are directly mixed into nutrient broth. DMSO solutions of the test compound (max. 10 mg/ml) is diluted with 0.025% Tween20 by factor 50 and 10 μl of this solution is pipetted into a microtiter plate (96-well format) and the nutrient broth containing the fungal spores/mycelia fragments is then added to give an end concentration of the tested compound. The test plates are incubated at 24° C. and 96% rH in the dark. The inhibition of fungal growth is determined photometrically after 2-6 days and antifungal activity is calculated.
Fusarium culmorum (root rot): Conidia of the fungus from cryogenic storage were directly mixed into nutrient broth (PDB potato dextrose broth). After placing a (DMSO) solution of the test compounds into a microtiter plate (96-well format) the nutrient broth containing the fungal spores was added. The test plates were incubated at 24 C and the inhibition of growth was determined photometrically after 48 hrs.

Pythium ultimum = Pythium ultimum (Damping off), liquid culture growth inhibition in potato dextrose broth; assay type: cell-based; details: Globisporangium ultimum; 20 ppm; potato dextrose broth, 24° C.; inhibition of growth determined photometrically after 48 hours; read-out: control of fungal infection, Pythium ultimum

C#Cc1cnc2ccc(OC(SC)C(=O)NC(C)(C#N)C=NOC)cc2c1 (stereo not drawn) [Compound No. 59, N-(1-Cyano-2-methoxyimino-1-methyl-ethyl)-2-(3-ethynyl-quinolin-6-yloxy)-2-methylsulfanyl-acetamide]
≥ 60%: pest or weed control at 200 ppm (Phytophthora infestans) | pest or weed control at 200 ppm (Septoria nodorum) | inhibition of growth at 200 ppm (Septoria tritici) | pest or weed control at 200 ppm [1] | pest or weed control at 200 ppm (Botrytis cinerea) | pest or weed control at 200 ppm (Plasmopara viticola) | pest or weed control at 200 ppm [2] | inhibition of growth at 200 ppm (Fusarium culmorum)

C#Cc1cnc2ccc(OC(CC)C(=O)NC(C)(C#N)C=NOC)cc2c1 (stereo not drawn) [Compound No. 61, N-(1-Cyano-2-methoxyimino-1-methyl-ethyl)-2-(3-ethynyl-quinolin-6-yloxy)-butyramide]
≥ 60%: pest or weed control at 200 ppm (Phytophthora infestans) | pest or weed control at 200 ppm (Septoria nodorum) | inhibition of growth at 20 ppm (Pythium ultimum) | inhibition of growth at 200 ppm (Septoria tritici) | pest or weed control at 200 ppm [1] | pest or weed control at 200 ppm (Botrytis cinerea) | pest or weed control at 200 ppm (Plasmopara viticola) | pest or weed control at 200 ppm [2] | inhibition of growth at 200 ppm (Fusarium culmorum)

C#CCOCC(C)(C=NOC)NC(=O)C(Oc1ccc2ncc(C#C)cc2c1)SC (stereo not drawn) [Compound No. 62, 2-(3-Ethynyl-quinolin-6-yloxy)-N-(2-methoxyimino-1-methyl-1-prop-2-ynyloxymethyl-ethyl)-2-methylsulfanyl-acetamide]
≥ 60%: pest or weed control at 200 ppm (Phytophthora infestans) | pest or weed control at 200 ppm (Septoria nodorum) | inhibition of growth at 20 ppm (Pythium ultimum) | inhibition of growth at 200 ppm (Septoria tritici) | pest or weed control at 200 ppm [1] | pest or weed control at 200 ppm (Botrytis cinerea) | pest or weed control at 200 ppm (Plasmopara viticola) | pest or weed control at 200 ppm [2]

COCC(C)(C=NOC)NC(=O)C(Oc1ccc2ncc(Br)cc2c1)SC (stereo not drawn) [Compound No. 64, 2-(3-Bromo-quinolin-6-yloxy)-N-[2-methoxy-1-(methoxyimino-methyl)-1-methyl-ethyl]-2-methylsulfanyl-acetamide]
≥ 60%: pest or weed control at 200 ppm (Phytophthora infestans) | pest or weed control at 200 ppm (Septoria nodorum) | inhibition of growth at 20 ppm (Pythium ultimum) | inhibition of growth at 200 ppm (Septoria tritici) | pest or weed control at 200 ppm [1] | pest or weed control at 200 ppm (Botrytis cinerea) | pest or weed control at 200 ppm (Plasmopara viticola) | pest or weed control at 200 ppm [2] | inhibition of growth at 200 ppm (Fusarium culmorum)

C#Cc1cnc2ccc(OC(SC)C(=O)NC(C)(C=NOC)COC)cc2c1 (stereo not drawn) [Compound No. 65, 2-(3-Ethynyl-quinolin-6-yloxy)-N-(2-methoxyimino-1-methoxymethyl-1-methyl-ethyl)-2-methylsulfanyl-acetamide]
≥ 60%: pest or weed control at 200 ppm (Phytophthora infestans) | pest or weed control at 200 ppm (Septoria nodorum) | inhibition of growth at 20 ppm (Pythium ultimum) | inhibition of growth at 200 ppm (Septoria tritici) | pest or weed control at 200 ppm [1] | pest or weed control at 200 ppm (Botrytis cinerea) | pest or weed control at 200 ppm (Plasmopara viticola) | pest or weed control at 200 ppm [2] | inhibition of growth at 200 ppm (Fusarium culmorum)

C#Cc1cnc2ccc(OC(SC)C(=O)NC3(C=NO)CCC3)cc2c1 (stereo not drawn) [Compound No. 80, 2-(3-Ethynyl-quinolin-6-yloxy)-N-[1-(hydroxyimino-methyl)-cyclobutyl]-2-methylsulfanyl-acetamide]
≥ 60%: pest or weed control at 200 ppm (Phytophthora infestans) | pest or weed control at 200 ppm (Septoria nodorum) | inhibition of growth at 20 ppm (Pythium ultimum) | inhibition of growth at 200 ppm (Septoria tritici) | pest or weed control at 200 ppm [1] | pest or weed control at 200 ppm (Plasmopara viticola) | pest or weed control at 200 ppm [2] | inhibition of growth at 200 ppm (Fusarium culmorum)

CON=CC(C)NC(=O)C(Oc1ccc2ncc(Br)cc2c1)SC (stereo not drawn) [Compound No. 94, 2-(3-Bromo-quinolin-6-yloxy)-N-(2-methoxyimino-1-methyl-ethyl)-2-methylsulfanyl-acetamide]
≥ 60%: pest or weed control at 200 ppm (Phytophthora infestans) | pest or weed control at 200 ppm (Septoria nodorum) | inhibition of growth at 20 ppm (Pythium ultimum) | inhibition of growth at 200 ppm (Septoria tritici) | pest or weed control at 200 ppm [1] | pest or weed control at 200 ppm (Plasmopara viticola) | pest or weed control at 200 ppm [2] | inhibition of growth at 200 ppm (Fusarium culmorum)

C#Cc1cnc2cc(F)c(OC(CC)C(=O)NC(C)(C)C=NOC)cc2c1 (stereo not drawn) [Compound No. 134, 2-(3-Ethynyl-7-fluoro-quinolin-6-yloxy)-N-(2-methoxyimino-1,1-dimethyl-ethyl)-butyramide]
≥ 60%: pest or weed control at 200 ppm (Phytophthora infestans) | pest or weed control at 200 ppm (Septoria nodorum) | inhibition of growth at 20 ppm (Pythium ultimum) | inhibition of growth at 200 ppm (Septoria tritici) | pest or weed control at 200 ppm [1] | pest or weed control at 200 ppm (Plasmopara viticola) | pest or weed control at 200 ppm [2] | inhibition of growth at 200 ppm (Fusarium culmorum)

C#Cc1cnc2c(C)cc(OC(CC)C(=O)NC(C)(C)C=NO)cc2c1 (stereo not drawn) [Compound No. 139, 2-(3-Ethynyl-8-methyl-quinolin-6-yloxy)-N-(2-hydroxyimino-1,1-dimethyl-ethyl)-butyramide]
≥ 60%: pest or weed control at 200 ppm (Phytophthora infestans) | pest or weed control at 200 ppm (Septoria nodorum) | inhibition of growth at 20 ppm (Pythium ultimum) | inhibition of growth at 200 ppm (Septoria tritici) | pest or weed control at 200 ppm [1] | pest or weed control at 200 ppm (Plasmopara viticola) | pest or weed control at 200 ppm [2] | inhibition of growth at 200 ppm (Fusarium culmorum)

CCC(Oc1cc(Cl)c2ncc(Br)cc2c1)C(=O)NC(C)(C)C=NOC (stereo not drawn) [Compound No. 146, 2-(3-Bromo-8-chloro-quinolin-6-yloxy)-N-(2-methoxyimino-1,1-dimethyl-ethyl)-butyramide]
≥ 60%: pest or weed control at 200 ppm (Phytophthora infestans) | pest or weed control at 200 ppm (Septoria nodorum) | inhibition of growth at 20 ppm (Pythium ultimum) | inhibition of growth at 200 ppm (Septoria tritici) | pest or weed control at 200 ppm [1] | pest or weed control at 200 ppm (Plasmopara viticola) | pest or weed control at 200 ppm [2] | inhibition of growth at 200 ppm (Fusarium culmorum)

C#Cc1cnc2ccc(OC(CC)C(=O)NC(C)(C)C=NO)cc2c1 (stereo not drawn) [Compound No. 147, 2-(3-Ethynyl-quinolin-6-yloxy)-N-(2-hydroxyimino-1,1-dimethyl-ethyl)-butyramide]
≥ 60%: pest or weed control at 200 ppm (Phytophthora infestans) | pest or weed control at 200 ppm (Septoria nodorum) | inhibition of growth at 20 ppm (Pythium ultimum) | inhibition of growth at 200 ppm (Septoria tritici) | pest or weed control at 200 ppm [1] | pest or weed control at 200 ppm (Plasmopara viticola) | pest or weed control at 200 ppm [2] | inhibition of growth at 200 ppm (Fusarium culmorum)

C#Cc1cnc2ccc(OC(CC)C(=O)NC(C)(C)C=NOCC)cc2c1 (stereo not drawn) [Compound No. 148, N-(2-Ethoxyimino-1,1-dimethyl-ethyl)-2-(3-ethynyl-quinolin-6-yloxy)-butyramide]
≥ 60%: pest or weed control at 200 ppm (Phytophthora infestans) | pest or weed control at 200 ppm (Septoria nodorum) | inhibition of growth at 20 ppm (Pythium ultimum) | inhibition of growth at 200 ppm (Septoria tritici) | pest or weed control at 200 ppm [1] | pest or weed control at 200 ppm (Plasmopara viticola) | pest or weed control at 200 ppm [2] | inhibition of growth at 200 ppm (Fusarium culmorum)

C#Cc1cnc2ccc(OC(CC)C(=O)NC(C)(C)C=NOCC=C)cc2c1 (stereo not drawn) [Compound No. 149, N-(2-Allyloxyimino-1,1-dimethyl-ethyl)-2-(3-ethynyl-quinolin-6-yloxy)-butyramide]
≥ 60%: inhibition of growth at 20 ppm (Pythium ultimum) | inhibition of growth at 200 ppm (Septoria tritici) | pest or weed control at 200 ppm [1] | pest or weed control at 200 ppm (Botrytis cinerea) | pest or weed control at 200 ppm [2] | inhibition of growth at 200 ppm (Fusarium culmorum)
